From ChEMBL document CHEMBL1201862, “PubChem BioAssay data set” (2004)
Counter-ions that a name gives are not always drawn. Activity calls are given as the source filed them.

Columns and labels:
[1] = molecular target: T1, Carboxy-terminal domain RNA polymerase II polypeptide A small phosphatase 1 (Homo sapiens, UniProt Q9GZU7); assay: inhibitors of CTDSP1, concentration-response testing, biochemical assay, absorbance-based, actives from ultra-high-throughput screening (AID 540297); assay type: functional
T1 sequence (Q9GZU7 whole entry): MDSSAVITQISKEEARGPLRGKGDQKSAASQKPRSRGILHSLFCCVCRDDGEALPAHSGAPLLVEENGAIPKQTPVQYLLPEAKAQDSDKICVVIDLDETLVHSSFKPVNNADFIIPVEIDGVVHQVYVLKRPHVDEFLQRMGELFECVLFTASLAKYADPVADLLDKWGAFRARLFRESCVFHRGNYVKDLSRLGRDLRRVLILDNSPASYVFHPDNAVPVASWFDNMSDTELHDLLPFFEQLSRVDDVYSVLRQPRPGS

[2] = microbe, parasite or virus in culture; assay type: functional; settings: Mycobacterium tuberculosis
[3] = cytotoxicity toward NIH3T3 fibroblasts, dose response, counter-screen, cell-based, ATP luminescence, mouse fibroblasts (AID 2010); assay type: functional;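 further: cells exposed to compound for about 90 hours before reading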
[4] = molecular target: T2, High affinity choline transporter 1 (Homo sapiens, UniProt Q9GZV3); assay: CHT inhibitors, dose response, cell-based, 5-point CRC, membrane potential dye (AID 504840); assay type: functional
T2 sequence (Q9GZV3 whole entry): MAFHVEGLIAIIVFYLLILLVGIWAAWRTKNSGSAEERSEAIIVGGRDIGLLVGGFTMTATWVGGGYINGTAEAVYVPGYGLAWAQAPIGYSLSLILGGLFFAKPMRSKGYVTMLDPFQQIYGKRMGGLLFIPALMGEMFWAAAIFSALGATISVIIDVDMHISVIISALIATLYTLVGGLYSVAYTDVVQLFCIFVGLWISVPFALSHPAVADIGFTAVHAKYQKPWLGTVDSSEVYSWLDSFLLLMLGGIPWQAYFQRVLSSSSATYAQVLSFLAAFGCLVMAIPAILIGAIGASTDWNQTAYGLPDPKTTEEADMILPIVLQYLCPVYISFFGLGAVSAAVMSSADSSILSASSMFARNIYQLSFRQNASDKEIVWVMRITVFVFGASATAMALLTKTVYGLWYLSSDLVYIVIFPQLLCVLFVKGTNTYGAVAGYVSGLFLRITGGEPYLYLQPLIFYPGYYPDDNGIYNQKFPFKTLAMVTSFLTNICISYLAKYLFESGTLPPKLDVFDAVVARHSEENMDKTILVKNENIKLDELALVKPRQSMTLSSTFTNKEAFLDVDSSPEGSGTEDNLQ

[5] = inhibitors of intracellular T. cruzi replication, confirmation, NIH3T3 host cells, beta-gal luminescence (AID 2044); assay type: functional, cell-based;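 further: intracellular parasites grown in NIH/3T3 mouse fibroblasts as host cells; luminescent beta-galactosidase reporter signal from transgenic T. cruzi replicating inside host cells; inhibitors lower the luminescence signal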
SUMO-activating enzyme = SUMO-activating enzyme (Homo sapiens, UniProt Q9UBT2); assay: SUMOylation inhibitor hit validation, confirmation, SUMOylation inhibitor project, biochemical, AlphaScreen (AID 2018); assay type: functional
Cytochrome P450 2C9 = Cytochrome P450 2C9 (Homo sapiens, UniProt P11712)
[6] = molecular target: T3, E3 ubiquitin-protein ligase XIAP (Homo sapiens, UniProt P98170); assay: XIAP antagonists, biochemical, IAP family, fluorescence polarization (AID 1018); assay type: functional
Estrogen receptor = molecular target: T4, Estrogen receptor (Homo sapiens, UniProt P03372);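 further: potency for inhibiting coactivator peptide recruitment to the receptor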
T4 sequence (P03372 whole entry): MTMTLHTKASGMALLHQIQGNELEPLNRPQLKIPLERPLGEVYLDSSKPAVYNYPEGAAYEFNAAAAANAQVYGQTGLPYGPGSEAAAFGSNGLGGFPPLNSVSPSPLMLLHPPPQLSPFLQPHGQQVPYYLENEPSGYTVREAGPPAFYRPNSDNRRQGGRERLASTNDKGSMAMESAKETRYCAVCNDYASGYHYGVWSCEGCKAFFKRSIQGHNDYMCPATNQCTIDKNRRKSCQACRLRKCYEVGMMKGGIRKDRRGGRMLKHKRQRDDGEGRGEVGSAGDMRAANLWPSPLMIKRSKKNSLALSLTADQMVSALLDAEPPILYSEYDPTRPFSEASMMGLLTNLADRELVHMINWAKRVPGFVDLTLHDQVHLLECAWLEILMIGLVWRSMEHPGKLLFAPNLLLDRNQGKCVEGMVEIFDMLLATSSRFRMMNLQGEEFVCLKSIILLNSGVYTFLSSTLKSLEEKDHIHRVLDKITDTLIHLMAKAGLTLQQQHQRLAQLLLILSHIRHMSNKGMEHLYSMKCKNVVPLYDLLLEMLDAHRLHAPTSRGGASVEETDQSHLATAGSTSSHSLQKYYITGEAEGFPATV

[7] = molecular target: T3, E3 ubiquitin-protein ligase XIAP; assay: Counter Screen using XIAP-Bir3 for Chemical Antagonists of Bir1/2 domains of IAP-family anti-apoptotic proteins. [Related pubchem assays (depositor defined):AID1018, AID1449, AID1514, AID1638, AID1749, AID1750, AID488957, AID488963]
H9c2 = assay: cells; assay type: functional, cell-based; settings: Rattus norvegicus, H9c2, Myocardium;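 further: confirmatory concentration-response retest of ultra-high-throughput screening hits for modulation of myocardial damage; cell death induced by hydrogen peroxide oxidative stress; compound pretreatment for 60 min then peroxide exposure for 2 h; potency is for protecting the cells against peroxide damage rather than for killing them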
[8] = HEp-2 cell cytotoxicity, dose response, cytotoxicity control for RSV inhibitor project, HTS (AID 2410); assay type: functional; settings: human respiratory syncytial virus
Protein Wnt-3a = Protein Wnt-3a (Mus musculus, UniProt P27467); assay: Wnt3a-driven reporter signaling inhibition, dose response, selectivity assay for Gli-SUFU antagonist project, Wnt-LIGHT cells, luminescence (AID 651570); assay type: functional; settings: read-out: IC50_Mean;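 further: Wnt-LIGHT reporter cells stimulated with conditioned medium from Wnt3a-producing cells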
INS1 = assay: beta cell apoptosis inhibitors, cytokine rescue, dose response, luminescence, retest (AID 449756); assay type: functional, cell-based; settings: Rattus norvegicus;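 further: cell death triggered by IL-1 beta plus TNF-alpha plus IFN-gamma mixture; protective hits raise ATP signal compared with cytokine alone wells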
Cytochrome P450 3A4 = Cytochrome P450 3A4 (Homo sapiens, UniProt P08684); settings: Potency;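 further: confirmatory qHTS run detecting inhibitors and substrates of CYP3A4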
HEK293 [9] = assay: NOD1 signaling inhibitors, primary screen, cell-based, luminescence, uHTS (AID 1578); assay type: functional; settings: Homo sapiens
HEK293 [10] = assay: cells; assay type: functional, cell-based; settings: Homo sapiens
HEK293 [11] = assay: NOD2 signaling inhibitors in MDP-stimulated cells, cell-based, uHTS, luminescence (AID 2001); assay type: functional; settings: Homo sapiens
HEK293 [12] = assay: cells; assay type: functional, cell-based; settings: Homo sapiens; remark: listed apart in the source
[13] = AlphaScreen signal interference compounds, dose response, artefact control for ARNT-TACC3 interaction inhibitor project, biochemical, luminescence, cherry-pick (AID 651705); assay type: functional;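 further: AlphaScreen bead proximity signal that flags compounds interfering with the detection technology; potency reflects signal decrease which marks the compound as an assay artifact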
[14] = CEM21 lymphoblast cell cytotoxicity, dose response, cytotoxicity control for viral fusion inhibitor project, CellTiter-Glo luminescence, cherry-picked (AID 652042); assay type: functional, cell-based;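 further: potency for signal decrease meaning cytotoxicity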
Nonstructural protein 1 = Nonstructural protein 1 (Influenza A virus, UniProt Q194T2); assay type: functional, Influenza A virus (A/California/07/2009(H1N1))
HEK293 [15] = assay: inhibitors of LMP1-driven NF-kB reporter, dose response, cell-based, HEK293, luciferase, cherry-pick (AID 588343); assay type: functional; settings: Homo sapiens
[16] = molecular target: T5, Rac GTPase-activating protein 1 (Homo sapiens, UniProt Q9H0H5); assay: MgcRacGAP GTPase-activating activity inhibitors, confirmation, biochemical, ADP Hunter fluorescence, primary and confirmatory (AID 624330); assay type: functional
T5 sequence (Q9H0H5 whole entry): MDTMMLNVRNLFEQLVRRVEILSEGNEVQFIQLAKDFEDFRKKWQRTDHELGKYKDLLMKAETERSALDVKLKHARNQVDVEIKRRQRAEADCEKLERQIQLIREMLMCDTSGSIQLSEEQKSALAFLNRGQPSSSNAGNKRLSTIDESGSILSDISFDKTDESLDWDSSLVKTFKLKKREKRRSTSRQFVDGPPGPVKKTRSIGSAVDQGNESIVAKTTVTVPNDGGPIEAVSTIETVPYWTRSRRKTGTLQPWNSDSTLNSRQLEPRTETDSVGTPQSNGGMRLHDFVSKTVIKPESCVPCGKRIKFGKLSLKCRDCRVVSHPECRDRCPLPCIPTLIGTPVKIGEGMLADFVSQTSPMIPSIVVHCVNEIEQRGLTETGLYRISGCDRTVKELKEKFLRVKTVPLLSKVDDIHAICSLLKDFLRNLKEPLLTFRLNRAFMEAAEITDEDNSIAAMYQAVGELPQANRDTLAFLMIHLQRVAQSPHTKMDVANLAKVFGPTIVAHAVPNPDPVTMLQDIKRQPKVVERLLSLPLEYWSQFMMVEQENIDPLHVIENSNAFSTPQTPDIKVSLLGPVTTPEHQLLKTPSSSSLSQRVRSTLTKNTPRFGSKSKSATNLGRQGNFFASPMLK

[17] = inhibitors of clade B AD8 Env fusion, dose response, cell-based, cherry-pick (AID 652062); assay type: functional;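 further: luciferase signal from cell-cell fusion driven by HIV-1 clade B AD8 Env; potency is for inhibitors of fusion seen as a drop in luminescence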
[18] = inhibitors of HIV Env-driven cell fusion, dose response, cherry-pick (AID 652057); assay type: functional, cell-based
SN12K1 = assay: cells; assay type: functional; settings: Homo sapiens
P388/ADR = assay: cells; assay type: functional; settings: Mus musculus
P388 = assay: cells; assay type: functional; settings: Mus musculus

Protein Wnt-3a, sequence (P27467 whole entry): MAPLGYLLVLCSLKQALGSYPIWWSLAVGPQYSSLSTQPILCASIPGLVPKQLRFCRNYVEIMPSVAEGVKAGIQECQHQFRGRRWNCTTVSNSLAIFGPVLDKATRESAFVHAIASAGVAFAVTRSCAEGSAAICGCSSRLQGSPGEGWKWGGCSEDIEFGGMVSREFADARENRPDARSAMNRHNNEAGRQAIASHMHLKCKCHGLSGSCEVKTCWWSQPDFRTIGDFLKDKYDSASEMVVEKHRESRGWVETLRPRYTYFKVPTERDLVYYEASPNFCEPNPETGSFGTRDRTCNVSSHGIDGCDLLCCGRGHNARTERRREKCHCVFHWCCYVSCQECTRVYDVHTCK
T3 sequence (P98170 whole entry): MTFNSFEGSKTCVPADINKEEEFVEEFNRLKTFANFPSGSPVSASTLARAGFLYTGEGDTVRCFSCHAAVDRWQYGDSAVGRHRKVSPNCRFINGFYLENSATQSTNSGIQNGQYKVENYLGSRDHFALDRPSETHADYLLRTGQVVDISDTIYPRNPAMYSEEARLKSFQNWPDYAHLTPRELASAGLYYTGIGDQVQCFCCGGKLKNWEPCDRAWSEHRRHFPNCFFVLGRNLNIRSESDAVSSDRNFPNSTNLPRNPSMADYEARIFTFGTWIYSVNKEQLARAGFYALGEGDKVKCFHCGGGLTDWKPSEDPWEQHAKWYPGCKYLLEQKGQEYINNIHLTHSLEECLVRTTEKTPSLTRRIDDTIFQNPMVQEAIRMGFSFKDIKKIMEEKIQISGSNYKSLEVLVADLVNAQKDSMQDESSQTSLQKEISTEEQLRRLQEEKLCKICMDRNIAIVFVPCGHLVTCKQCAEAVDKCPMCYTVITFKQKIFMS
Cytochrome P450 3A4, sequence (P08684 whole entry): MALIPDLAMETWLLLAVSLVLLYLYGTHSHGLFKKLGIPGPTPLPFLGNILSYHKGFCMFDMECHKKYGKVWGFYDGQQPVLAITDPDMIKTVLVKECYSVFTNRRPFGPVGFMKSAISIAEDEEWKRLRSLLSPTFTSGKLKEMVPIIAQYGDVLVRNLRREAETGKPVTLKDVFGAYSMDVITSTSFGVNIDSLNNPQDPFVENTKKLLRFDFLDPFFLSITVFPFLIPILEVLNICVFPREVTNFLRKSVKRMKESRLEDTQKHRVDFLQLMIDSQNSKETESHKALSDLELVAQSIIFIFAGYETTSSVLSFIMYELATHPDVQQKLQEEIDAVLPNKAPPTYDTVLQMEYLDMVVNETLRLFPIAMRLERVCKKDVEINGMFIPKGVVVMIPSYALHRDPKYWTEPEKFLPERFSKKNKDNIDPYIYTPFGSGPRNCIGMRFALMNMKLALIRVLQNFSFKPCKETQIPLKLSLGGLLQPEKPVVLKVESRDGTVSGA
SUMO-activating enzyme, sequence (Q9UBE0 whole entry): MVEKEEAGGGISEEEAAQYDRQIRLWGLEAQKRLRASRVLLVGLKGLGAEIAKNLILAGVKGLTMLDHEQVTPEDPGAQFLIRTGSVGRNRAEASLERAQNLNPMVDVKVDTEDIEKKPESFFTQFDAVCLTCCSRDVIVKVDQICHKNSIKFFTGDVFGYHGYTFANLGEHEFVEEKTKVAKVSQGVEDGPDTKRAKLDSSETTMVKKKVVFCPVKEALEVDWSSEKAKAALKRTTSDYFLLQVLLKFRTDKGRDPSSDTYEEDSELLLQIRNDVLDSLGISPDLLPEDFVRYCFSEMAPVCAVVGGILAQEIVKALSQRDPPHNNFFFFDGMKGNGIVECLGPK
SUMO-activating enzyme, sequence (Q9UBT2 whole entry): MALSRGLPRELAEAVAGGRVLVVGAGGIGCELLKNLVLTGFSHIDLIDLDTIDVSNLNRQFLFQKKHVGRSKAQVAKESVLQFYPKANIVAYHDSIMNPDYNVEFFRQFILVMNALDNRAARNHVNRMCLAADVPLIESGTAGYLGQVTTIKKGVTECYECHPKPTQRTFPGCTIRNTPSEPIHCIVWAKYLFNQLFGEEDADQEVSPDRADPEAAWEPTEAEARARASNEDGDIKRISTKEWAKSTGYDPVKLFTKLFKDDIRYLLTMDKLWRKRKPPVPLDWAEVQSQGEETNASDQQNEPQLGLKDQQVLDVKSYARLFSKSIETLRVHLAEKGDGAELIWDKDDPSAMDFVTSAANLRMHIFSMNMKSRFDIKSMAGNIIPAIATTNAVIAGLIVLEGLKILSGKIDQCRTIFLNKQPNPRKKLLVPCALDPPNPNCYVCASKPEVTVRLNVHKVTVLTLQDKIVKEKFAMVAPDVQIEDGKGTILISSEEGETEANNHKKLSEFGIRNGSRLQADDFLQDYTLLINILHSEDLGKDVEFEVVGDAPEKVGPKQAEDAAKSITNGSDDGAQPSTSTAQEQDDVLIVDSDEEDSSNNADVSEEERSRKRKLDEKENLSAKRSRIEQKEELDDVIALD
Nonstructural protein 1, sequence (Q194T2 whole entry): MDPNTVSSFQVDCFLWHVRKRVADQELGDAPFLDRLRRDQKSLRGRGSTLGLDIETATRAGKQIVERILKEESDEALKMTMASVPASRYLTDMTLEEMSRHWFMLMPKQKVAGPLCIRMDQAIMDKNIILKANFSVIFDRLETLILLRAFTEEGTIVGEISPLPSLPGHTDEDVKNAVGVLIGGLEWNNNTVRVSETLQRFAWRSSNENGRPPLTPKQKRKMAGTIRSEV
Cytochrome P450 2C9, sequence (P11712 whole entry): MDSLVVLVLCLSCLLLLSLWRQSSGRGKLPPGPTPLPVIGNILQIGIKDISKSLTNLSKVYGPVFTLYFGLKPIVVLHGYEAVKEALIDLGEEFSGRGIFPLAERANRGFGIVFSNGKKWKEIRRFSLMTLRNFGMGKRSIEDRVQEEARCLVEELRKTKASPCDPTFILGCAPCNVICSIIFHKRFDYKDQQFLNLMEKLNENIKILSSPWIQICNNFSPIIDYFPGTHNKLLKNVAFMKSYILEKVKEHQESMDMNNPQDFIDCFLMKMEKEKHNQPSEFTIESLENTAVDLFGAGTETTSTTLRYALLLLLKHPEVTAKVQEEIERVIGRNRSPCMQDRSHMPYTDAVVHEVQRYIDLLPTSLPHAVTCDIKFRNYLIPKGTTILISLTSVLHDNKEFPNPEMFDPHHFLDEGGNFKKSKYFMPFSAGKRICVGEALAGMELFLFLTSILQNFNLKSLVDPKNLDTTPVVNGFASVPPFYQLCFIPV

In the case of `O=C(Cn1cnc2c(nnn2-c2ccccc2)c1=O)NCc1ccc(F)cc1`, the IC50 [1] is reported as 6.76 µM (active).
For `c1ccc(CCN2CCN(c3ncnc4c3cnn4-c3ccccc3)CC2)cc1`, the CC50 [2] was > 40 µM (active), the EC50 [3] was > 30 µM (not active) and the IC50 [4] was 30.2 µM (active). The EC50 [5] was 2.38 µM (active).
For `CC(=O)Nc1ccc(NC(=O)Cn2c(-c3ccc(F)cc3)cnc2SCC(=O)Nc2c(C)cccc2C)cc1`, the IC50 (SUMO-activating enzyme) was 61.6 µM (active) and the AC50 (Cytochrome P450 2C9) was 17.8 µM (inconclusive).
With `Cc1cc(-c2nn3c(-c4ccccc4)nnc3s2)c2ccccc2n1` the IC50 [6] was > 100 µM (not active), the IC50 (Estrogen receptor) was 21.6 µM (active) and the IC50 [7] was > 100 µM (inactive). For the same compound, the IC50 (H9c2) was > 79 µM (inactive).
For `COc1ccccc1CCNC(=O)C(=O)NCCC1CCCCN1S(=O)(=O)c1cccs1` (stereo unspecified), the CC50 [8] was 36.7 µM (active) and the IC50 (Protein Wnt-3a) was 12.3 µM (active).
With `S=C(Nc1ccccc1)N1CCC(Cc2ccccc2)CC1` the IC50 (Protein Wnt-3a) was 18 µM (active).
For `CC1CCCCC1NS(=O)(=O)c1ccc(S(=O)(=O)NCc2ccncc2)cc1` (stereo unspecified), the IC50 (Protein Wnt-3a) was 1.43 µM (active) and the AC50 (INS1) was 3.4 µM (active).
With `COC(=O)[C@H]1C[C@H]2CC[C@H](O)C[C@H]2N1CC1CC1` the AC50 (Cytochrome P450 3A4) was 25.1 µM (inconclusive).
For `COc1ccc(NS(=O)(=O)c2ccc3oc(SC(C)C(N)=O)nc3c2)cc1` (stereo unspecified), the EC50 (HEK293 [9]) was 6.14 µM (active), the IC50 (HEK293 [10]) was > 20 µM (inactive) and the IC50 (HEK293 [11]) was 20 µM (inactive). For the same compound, the IC50 (HEK293 [12]) was > 20 µM (inactive).
In the case of `O=C(Nc1ccccc1-c1nnn(CC(=O)N2CCCc3ccccc32)n1)c1ccc(Cl)cc1`, the IC50 [6] is reported as > 100 µM (not active) and the IC50 [7] is reported as > 100 µM (inactive).
With `CC1CCCN(C(C(=O)Nc2ccc(C(C)C)cc2)c2ccc3c(c2)OCO3)C1` (stereo unspecified) the IC50 [6] was > 100 µM (not active) and the IC50 [7] was > 100 µM (inactive).
In the case of `COc1cc(OC)cc(C(=O)Nc2nnc(-c3cccnc3)o2)c1`, the AC50 [13] is reported as 97.6 µM (active).
In the case of `COc1ccc(S(=O)(=O)N2CCOC2CNC(=O)C(=O)NCCc2c[nH]c3ccccc23)cc1` (stereo unspecified), the IC50 [6] is reported as > 100 µM (not active) and the IC50 [7] is reported as > 100 µM (inactive).
With `COc1cc(/C=C(/C(=O)c2cccs2)c2nc3ccccc3[nH]2)ccc1O` the EC50 (HEK293 [9]) was 12.1 µM (active), the IC50 (HEK293 [10]) was > 20 µM (inactive) and the IC50 (HEK293 [11]) was 4.02 µM (active). The IC50 (HEK293 [12]) was 2.96 µM (active) and the AC50 (INS1) was 18 µM (active).
With `Oc1ccc(C=NNc2ccccn2)c(O)c1` the AC50 [14] was 8.15 µM (active), the IC50 (Nonstructural protein 1) was 2.71 µM (active) and the AC50 (HEK293 [15]) was 10.4 µM (active). For the same compound, the IC50 [16] was 27 µM (active), the AC50 [17] was 5.5 µM (active) and the AC50 [18] was 8.53 µM (active).
With `Cc1cccc(CCNC(=O)C2CCCN(c3ncnc4c3nc3n4CCCCC3)C2)c1` (stereo unspecified) the IC50 [4] was 11.8 µM (active).
For `CCOc1ncccc1C(=O)OCC(=O)Nc1nnc(-c2ccccc2)o1`, the AC50 [13] was 107 µM (active).
With `CC(C)=CC(=O)OC1C2C(C)=CC(=O)C(O)C2(C)C2C3(O)OCC24C(CC(=O)OC14)C(C)C3O` (stereo unspecified) the GI50 (SN12K1) was 0.02 µM (active), the GI50 (P388/ADR) was 0.102 µM (active) and the GI50 (P388) was 0.000946 µM (active).
For `NCC(Cl)C(O)c1c[nH]c(N)n1` (stereo unspecified), the GI50 (SN12K1) was 0.507 µM (active), the GI50 (P388/ADR) was 0.232 µM (active) and the GI50 (P388) was 0.0353 µM (active).
With `O=C(NC(Cc1ccc(Cl)cc1)C(=O)O)c1ccc(I)cc1` (stereo unspecified) the GI50 (SN12K1) was > 100 µM (inactive), the GI50 (P388/ADR) was 54.8 µM (inactive) and the GI50 (P388) was 64.7 µM (inactive).
For `O=C(N/N=C/c1ccc2c(c1)OCO2)c1cc(-c2ccco2)nc2ccccc12`, the IC50 [1] was 10.8 µM (active).
For `COc1cc(C2c3cc4c(cc3[C@@H](Nc3cccc(CO)c3)C3COC(=O)[C@H]23)OCO4)cc(OC)c1O` (stereo partly specified), the GI50 (SN12K1) was 0.0925 µM (active), the GI50 (P388/ADR) was 0.124 µM (active) and the GI50 (P388) was < 0.01 µM (active).
For `C/C(CC(=O)NC1CCCCC1)=N\NC(=O)Cc1ccc(-c2ccccc2)cc1`, the IC50 [1] was 7.87 µM (active).
With `CCCCN1CCCCC1C(=O)Nc1c(C)cccc1C` (stereo unspecified) [BUPIVACAINE HYDROCHLORIDE] the AC50 (Cytochrome P450 3A4) was 31.6 µM (inconclusive).
